Assay results taken from US10627415B2, “Compositions and methods for diagnosing, monitoring, and treating an autoimmune disease” (BOARD OF TRUSTEES OF MICHIGAN STATE UNIVERSITY, priority 2015, dated 2020).

How the values were obtained:
Format in all cases: cell-based, human
[1] = test system: RBCs; test: 65Zn2+ binding to RBCs; settings: 20 nM 65Zn2+ and 20 nM C-peptide
Source text: In some embodiments, e.g., those in which RBCs are contacted with C-peptide and Zn^2+, Fe^2+, and/or Cr^3+, in the presence of albumin or other C-peptide binding facilitator, Zn^2+, Fe^2+, and/or Cr^3+ uptake by RBCs can be measured (e.g., as a proxy for C-peptide uptake). Methods for detecting or measuring Zn^2+ uptake by RBCs are known in the art and described in, e.g., Horn et al. (1995) J Physiol 489(1):73-80 (describing the use of radiolabeled Zn^2+).
Additional samples from healthy controls and MS patients were analyzed for C-peptide binding, ATP release (10 healthy control patients, 10 MS patients, and 12 MS patients with glybenclamide), and Zn^2+ binding (11 healthy control patients and 22 MS patients). […] Here, 20 nM ^65Zn^2+ was incubated with the RBCs and 20 nM C-peptide. It is noteworthy that in 32 of these 34 samples, MS ATP release, C-peptide and/or Zn^2+ binding, was higher than the control samples analyzed simultaneously with the MS samples.

[2] = test system: RBCs of MS patients; test: ATP release from RBCs in a constricted environment (luciferin/luciferase chemiluminescence); settings: RBCs of MS patients incubated with the inhibitor; 7% hematocrit, flow; MS without inhibitor 344.7±46.8 nM, healthy controls 132.1±14.1 nM
Source text: In some embodiments, detecting or measuring the amount of C-peptide uptake can be accomplished by measuring ATP release by the RBCs contacted with C-peptide (and, optionally, Zn^2+, Fe^2+, and/or Cr^3+). Methods for measuring ATP release by RBCs are known in the art and described in, e.g., Faris and Spence (2008) Analyst 133(5):678-682; Fischer et al. (2003) Analyst 128(9):1163-1168; Petruzzi et al. (1994) Metabalism 43(4):435-440; Richards et al. (2013) Am J Physiol Regul Integr Comp Physiol 305(11):R1331-1336; and Richards et al. (2014) Am J Physiol Regul Integr Comp Physiol 307(7):R862-868. For example, ATP can be measured using a luciferin-luciferase assay. […] The light emitted from the reaction with ATP can be quantified using a luminometer. […]
Experiments were performed to determine if RBCs from MS patients (n=19) release more ATP than blood from healthy control patients (n=10) or blood from MS patents combined with the ATP release inhibitor, glybenclamide (Gly; n=12) when subjected to a constricted environment. […] The portion of tubing having the polyimide coating removed was positioned over a light-excluding box containing a photomultiplier tube (PMT), such that chemiluminescence generated from the ATP contacting the detection facilitator was detected. […]

[3] = test system: RBCs; test: Effect of C-peptide binding facilitator on C-peptide binding to RBCs (Example 2 protocol); settings: for C-peptide binding to RBCs, MS: n = 1
Experimental: Similar studies were performed using serum albumin from other species (human, porcine, chicken); all of these forms deliver C-peptide to RBCs and are useful in the methods described herein.
All samples were handled in an identical manner. Briefly, about 10 mL of blood was drawn from each donor; the RBCs were purified by centrifugation; and the RBCs were suspended in physiological salt solution (PSS). Then RBCs were combined with PSS (containing bovine serum albumin (BSA) as a C-peptide binding facilitator) and C-peptide to generate a mixture having a 7% hematocrit, 20 nM C-peptide, and 75 μM BSA (0.5%). The mixture was allowed to incubate for 2 hours at 37° C. Next, the samples were centrifuged to separate the cells from solution, the solution was diluted 1:50 with double distilled water, and the amount of C-peptide remaining in the solution was determined by ELISA. This provided a value corresponding to the moles of C-peptide bound to the RBCs. […] Whereas blood from the healthy controls bound an average of 1.99±0.32 pmoles C-peptide, blood from MS patients and OND patients bound averages of 3.51±0.59 pmoles of C-peptide and 2.23±0.51 pmoles of C-peptide, respectively. As shown by p values of less than 0.001, the increase in C-peptide binding relative to healthy controls and OND patients is significant.
Experiments were performed to determine the effect of C-peptide binding facilitator concentration on C-peptide binding by RBCs. The protocol of Experiment 2 was repeated, but with increasing BSA concentrations. […] Only a slight increase in C-peptide binding is realized.
Experiments were performed to test various potential C-peptide binding facilitators. The experiments were performed as described in example 2, but the C-peptide binding facilitator, BSA, was replaced with other albumins (porcine serum albumin and ovalbumin) or other proteins (leptin, casein, transferrin, and collagen).

[4] = other protein in place of BSA, n = 3
[5] = other albumin in place of BSA, n = 4

Q: `[65Zn+2]` [^65Zn^2+] was tested. Which “amount of 65Zn2+ able to bind with the RBCs” value ([1]; RBCs of MS patients) did it give?
A: 3.61±0.22 picomoles

Q: And the “amount of 65Zn2+ able to bind with the RBCs” value ([1]; RBCs of healthy controls)?
A: 2.26±0.24 picomoles

Q: For `COc1ccc(Cl)cc1C(=O)NCCc1ccc(S(=O)(=O)NC(=O)NC2CCCCC2)cc1` [glybenclamide], which ATP release [2] is on record?
A: 65.3 ± 11.6 nM

Q: For bovine serum albumin [BSA], which C-peptide binding ([3]; [BSA] 0.5%) is on record?
A: 2.14 ± 0.22 pmol

Q: And the C-peptide binding ([3]; [BSA] 1.0%)?
A: 2.19 ± 0.16 pmol

Q: And the C-peptide binding ([3]; [BSA] 2.0%)?
A: 2.26 ± 0.13 pmol

Q: With casein as the molecule, how does the “C-peptide binding to RBCs, MS” value ([3]; other protein in place of BSA) read?
A: No binding detected

Q: What about the “C-peptide binding to RBCs, Control” value [3, 4] of the same molecule?
A: No binding detected

Q: With collagen as the molecule, how does the “C-peptide binding to RBCs, MS” value ([3]; other protein in place of BSA) read?
A: 0.56 pmol

Q: And the “C-peptide binding to RBCs, Control” value [3, 4]?
A: 0.21 ± 0.14 pmol

Q: leptin was tested. Which “C-peptide binding to RBCs, MS” value ([3]; other protein in place of BSA) did it give?
A: 0.97 pmol

Q: And the “C-peptide binding to RBCs, Control” value [3, 4]?
A: 0.74 ± 0.11 pmol

Q: How did the “C-peptide binding to RBCs, MS” value ([3]; other albumin in place of BSA) turn out when ovalbumin was run?
A: 0.67 pmol

Q: What about the “C-peptide binding to RBCs, Control” value [3, 5] of the same molecule?
A: 0.39 ± 0.22 pmol

Q: What does the source list for transferrin?
A: C-peptide binding to RBCs, MS ([3]; other protein in place of BSA): No binding detected; C-peptide binding to RBCs, Control [3, 4]: No binding detected

B1: porcine serum albumin (protein, UniProt P08835 25-607, looked up)
Albumin: DTYKSEIAHRFKDLGEQYFKGLVLIAFSQHLQQCPYEEHVKLVREVTEFAKTCVADESAENCDKSIHTLFGDKLCAIPSLREHYGDLADCCEKEEPERNECFLQHKNDNPDIPKLKPDPVALCADFQEDEQKFWGKYLYEIARRHPYFYAPELLYYAIIYKDVFSECCQAADKAACLLPKIEHLREKVLTSAAKQRLKCASIQKFGERAFKAWSLARLSQRFPKADFTEISKIVTDLAKVHKECCHGDLLECADDRADLAKYICENQDTISTKLKECCDKPLLEKSHCIAEAKRDELPADLNPLEHDFVEDKEVCKNYKEAKHVFLGTFLYEYSRRHPDYSVSLLLRIAKIYEATLEDCCAKEDPPACYATVFDKFQPLVDEPKNLIKQNCELFEKLGEYGFQNALIVRYTKKVPQVSTPTLVEVARKLGLVGSRCCKRPEEERLSCAEDYLSLVLNRLCVLHEKTPVSEKVTKCCTESLVNRRPCFSALTPDETYKPKEFVEGTFTFHADLCTLPEDEKQIKKQTALVELLKHKPHATEEQLRTVLGNFAAFVQKCCAAPDHEACFAVEGPKFVIEIRGILA
Q: Which “C-peptide binding to RBCs, MS” value ([3]; other albumin in place of BSA) does the source give for B1 here?
A: 6.33 pmol

Q: What about the “C-peptide binding to RBCs, Control” value [3, 5] of the same molecule?
A: 4.01 ± 1.01 pmol
